Consider twelve molecules from patent US8268846B2, “Amino heterocyclic linked pyrimidine derivatives” (Abbott Laboratories, priority 2008, dated 2012).

Assay [1] concerns the target T1, histamine H4 receptor (Homo sapiens, UniProt Q9H3N8).
T1 construct: expressed in transfected cells
Briefly: In vitro histamine H4 potency in FLIPR (Ca2+ flux, HEK-293 cells coexpressing Gαqi5). The class given is cell-based. The following applies: for Potency: Kb values for antagonists and inverse agonists, block of histamine-induced fluorescence. The text has this: There are many methods available to show the effectiveness of compounds as histamine H4 receptor ligands. Histamine H4 receptors from mammalian species have been cloned. Methods to clone, express, and assess the potency and functional activity of such cloned genes are well known to those skilled in the art of molecular biology. Examples of methods of cloning and expressing histamine H4 receptors, and of assessing the potency and functional activity are described in Nguyen, et al. Molecular Pharmacology (2001) vol. 59 pp. 427-433; Zhu, et al. Molecular Pharmacology (2001) vol. 59 pp. 434-441; Coge, et al., Biochemical and Biophysical Research Communications (2001) vol. 284, pp. 301-309; Liu, et al. Molecular Pharmacology (2001) vol. 59 pp. 420-426; Liu, et al. Journal of Pharmacology and Experimental Therapeutics (2001) v. 299, pp. 121-130; and Thurmond, et al. Journal of Pharmacology and Experimental Therapeutics (2004) v. 309, pp. 404-413. In the present case, to determine the potency and effectiveness of representative compounds of this invention as histamine-H4 receptor ligands (H4 receptor ligands), the following tests were conducted according to previously described methods (see Esbenshade, et al., Biochemical Pharmacology (2004), vol. 68, pp. 933-945, and in Krueger, et al., Journal of Pharmacology and Experimental Therapeutics (2005) v. 314, pp. 271-281): histamine H4 receptors were cloned and stably expressed in HEK-293 (human embryonic kidney) cells coexpressing a Gαqi5. Before testing, cells are loaded with a Ca^+2 sensitive fluorescent dye, in this case Fluo-4 (Invitrogen, Carlsbad, Calif.). In the case of partial agonist or agonist ligands, addition of compound to the cells leads to the increase in intracellular Ca^+2 which is detected by FLIPR (Fluorescence Imaging Plate Reader; Molecular Devices, Sunnyvale, Calif.) technology. In a similar manner, compounds that are antagonists or inverse agonists, block the increase in fluorescence induced by the full histamine H4 agonist histamine, and partial agonists reduce the amount of fluorescence induced by the full histamine H4 agonist histamine. The fluorescence intensities measured before addition of the test compound are subtracted from the fluorescence intensities at later time points. Peak response values determined at each concentration of ligand are expressed as a percentage of the response obtained with the full agonist histamine. Concentration versus response data are analyzed to obtain compound potency as Kb values for antagonists and inverse agonists and as EC50 values for partial agonists.
A general note: Calcium flux is commonly read through the fluorescence of an indicator in the cells.

Assay [2] addresses T1, histamine H4 receptor. The assay can be described thus: [3H]-histamine competition binding assay, membranes of HEK-293 cells transfected with histamine H4 receptor. The note with it: displacing 3H-histamine; Ki by Cheng-Prusoff equation; read-out: Potency. The protocol: The potency of compounds of the invention in displacing ^3H-histamine in competition binding assays is assessed by methods described in Esbenshade, et al., Biochemical Pharmacology (2004), vol. 68, pp. 933-945. In this assay, membranes were prepared from HEK-293 cells transiently transfected with the pCINeo expression vector harboring the histamine H4 receptor by homogenization of the cells on ice in TE buffer (50 mM Tris-HCl buffer, pH 7.4, containing 5 mM EDTA), 1 mM benzamidine, 2 μg/mL aprotinin, 1 μg/mL leupeptin, and 1 μg/mL pepstatin. The homogenate was centrifuged at 40,000 g for 20 minutes at 4° C. This step was repeated, and the resulting pellet was resuspended in TE buffer. Aliquots were frozen at −70° C. until needed. On the day of assay, membranes were thawed and diluted with TE buffer. Competition radioligand binding assays were performed with increasing concentrations of test compound in the presence of [^3H]-histamine incubated at 25° C. for 1 hour in a total volume of 0.5 mL of 50 mM Tris, 5 mM EDTA, pH 7.4. All binding reactions were terminated by filtration under vacuum onto polyethylenimine (0.3%) presoaked Unifilters (PerkinElmer Life Sciences) or Whatman GF/B filters (Whatman, Clifton, N.J.) followed by three brief washes with 4 mL of ice-cold TE buffer. Bound radiolabel was determined by liquid scintillation counting. For all of the radioligand competition binding assays, IC50 values and Hill slopes were determined by Hill transformation of the data and Ki values were determined by the Cheng-Prusoff equation. The following table of representative histamine H4 receptor ligands is provided, along with potency values: […]

T1 sequence (Q9H3N8 whole entry, species assumed): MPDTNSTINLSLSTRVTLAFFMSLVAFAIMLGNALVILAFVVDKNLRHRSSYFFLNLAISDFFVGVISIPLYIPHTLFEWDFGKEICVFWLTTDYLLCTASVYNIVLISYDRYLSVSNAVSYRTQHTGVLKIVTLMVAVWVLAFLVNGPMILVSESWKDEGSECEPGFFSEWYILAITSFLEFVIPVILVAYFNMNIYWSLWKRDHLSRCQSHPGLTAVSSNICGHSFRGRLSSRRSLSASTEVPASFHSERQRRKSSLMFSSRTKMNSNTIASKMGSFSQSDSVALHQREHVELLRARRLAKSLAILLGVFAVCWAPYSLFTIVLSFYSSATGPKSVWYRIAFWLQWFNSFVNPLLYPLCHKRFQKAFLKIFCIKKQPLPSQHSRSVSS

Turning to `Nc1nccc(NCCNc2cc(-c3cccc(Cl)c3)nc(N)n2)n1` [Example 6, N^4-{2-[(2-aminopyrimidin-4-yl)amino]ethyl}-6-(3-chlorophenyl)pyrimidine-2,4-diamine], the “Potency” value on histamine H4 receptor [1] is 0.0025 µM. In addition, the Ki on histamine H4 receptor [2] stood at 0.0066 µM.

What is called EC50 is the midpoint of the concentration-response curve. High values mean lower potency in that assay, low ones higher potency in that assay. Consider `Nc1nccc(NCCNc2nc(N)nc3c2CCCC(c2ccccc2)C3)n1` (stereo not shown) [Example 11, N^4-{2-[(2-aminopyrimidin-4-yl)amino]ethyl}-8-phenyl-6,7,8,9-tetrahydro-5H-cyclohepta[d]pyrimidine-2,4-diamine], for which the response at histamine H4 receptor [1] (EC50 values for partial agonists) was half-maximal at 2340 nM (EC50).

Regarding `Nc1nccc(NCCNc2cc(/C=C/c3ccccc3)nc(N)n2)n1` [Example 9, N^4-{2-[(2-aminopyrimidin-4-yl)amino]ethyl}-6-[(E)-2-phenylvinyl]pyrimidine-2,4-diamine], the “Potency” value at histamine H4 receptor [1] is 0.085 µM. Also, on histamine H4 receptor [2], the Ki was 0.02 µM.

As to `Nc1nccc(NCCNc2nc(N)nc3c2CCCC32CCCC2)n1` [Example 10, N^4′-{2-[(2-aminopyrimidin-4-yl)amino]ethyl}-6′,7′-dihydro-5′H-spiro[cyclopentane-1,8′-quinazoline]-2′,4′-diamine], the “Potency” value on histamine H4 receptor [1] turned out to be 0.032 µM. Further, the Ki at histamine H4 receptor [2] came out at 0.0074 µM.

As for `Nc1nccc(NCCCNc2nc(N)nc3c2CCCc2ccccc2-3)n1` [Example 3, N^4-{3-[(2-aminopyrimidin-4-yl)amino]propyl}-6,7-dihydro-5H-benzo[6,7]cyclohepta[1,2-d]pyrimidine-2,4-diamine], the “Potency” value on histamine H4 receptor [1] is 0.309 µM.

Turning to `Nc1nccc(NCCNc2cc(-c3cc(Cl)cc(Cl)c3)nc(N)n2)n1` [Example 7, N^4-{2-[(2-aminopyrimidin-4-yl)amino]ethyl}-6-(3,5-dichlorophenyl)pyrimidine-2,4-diamine], the “Potency” value at histamine H4 receptor [1] was 0.069 µM.

For the molecule `Nc1ccnc(NCCNc2nc(N)nc3c2CCCc2ccccc2-3)n1` [Example 4, N^4-{2-[(4-aminopyrimidin-2-yl)amino]ethyl}-6,7-dihydro-5H-benzo[6,7]cyclohepta[1,2-d]pyrimidine-2,4-diamine], the “Potency” value at histamine H4 receptor [1] is 1.349 µM.

Regarding `COc1ccc(Cl)cc1-c1cc(NCCNc2ccnc(N)n2)nc(N)n1` [Example 8, N^4-{2-[(2-aminopyrimidin-4-yl)amino]ethyl}-6-(5-chloro-2-methoxyphenyl)pyrimidine-2,4-diamine], the “Potency” value on histamine H4 receptor [1] is 0.589 µM.

As to `Nc1nccc(NCCNc2nc(N)nc3c2CCCc2ccccc2-3)n1` [Example 1, N^4-{2-[(2-aminopyrimidin-4-yl)amino]ethyl}-6,7-dihydro-5H-benzo[6,7]cyclohepta[1,2-d]pyrimidine-2,4-diamine], the “Potency” value at histamine H4 receptor [1] came to 0.204 µM.

As to `Nc1nccc(NCCNc2cc(-c3ccccc3)nc(N)n2)n1` [Example 5, N^4-{2-[(2-aminopyrimidin-4-yl)amino]ethyl}-6-phenylpyrimidine-2,4-diamine], on histamine H4 receptor [1], the “Potency” value stood at 0.0087 µM.

As for `CN(CCNc1ccnc(N)n1)c1nc(N)nc2c1CCCc1ccccc1-2` [Example 2, N^4-{2-[(2-aminopyrimidin-4-yl)amino]ethyl}-N^4-methyl-6,7-dihydro-5H-benzo[6,7]cyclohepta[1,2-d]pyrimidine-2,4-diamine], on histamine H4 receptor [1], the “Potency” value came to 0.025 µM. At histamine H4 receptor [2], the Ki was found to be 0.0035 µM.

On to `Nc1nccc(NCCNc2ncnc3c2oc2ccccc23)n1` [Example 12, N^4-[2-([1]benzofuro[3,2-d]pyrimidin-4-ylamino)ethyl]pyrimidine-2,4-diamine], for which the “Potency” value at histamine H4 receptor [1] was 2.089 µM.
